Reference: patent US8394986B2, “Phenoxiacetic acid derivatives” (AstraZeneca AB, priority 2003, dated 2013)
Counter-ions that a name gives are not always drawn.

molecular target: T1, rhCRTh2 (Homo sapiens, UniProt Q9Y5Y4); test: Ligand binding assay ([3H]PGD2 SPA, HEK cell membranes); details: [3H]PGD2 displacement, membranes of HEK cells expressing rhCRTh2/Ga16, SPA beads, 2 hours room temperature
T1 construct: expressed in transfected cells; membranes prepared
T1 sequence (Q9Y5Y4 1-395): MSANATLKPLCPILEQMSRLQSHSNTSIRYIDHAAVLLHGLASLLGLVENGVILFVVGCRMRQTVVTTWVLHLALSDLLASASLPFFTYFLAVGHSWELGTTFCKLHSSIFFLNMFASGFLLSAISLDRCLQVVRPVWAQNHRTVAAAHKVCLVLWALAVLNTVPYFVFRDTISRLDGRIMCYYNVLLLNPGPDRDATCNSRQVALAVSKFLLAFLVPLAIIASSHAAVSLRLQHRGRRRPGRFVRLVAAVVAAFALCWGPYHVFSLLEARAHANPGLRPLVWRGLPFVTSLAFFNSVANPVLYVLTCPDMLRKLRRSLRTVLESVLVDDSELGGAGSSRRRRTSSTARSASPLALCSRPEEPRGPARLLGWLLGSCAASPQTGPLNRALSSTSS
Procedure: [^3H]PGD2 was purchased from Perkin Elmer Life Sciences with a specific activity of 100-210 Ci/mmol All other chemicals were of analytical grade.
HEK cells expressing rhCRTh2/Ga16 were routinely maintained in DMEM containing 10% Foetal Bovine Serum (HyClone), 1 mg/ml geneticin, 2 mM L-glutamine and 1% non-essential amino acids. For the preparation of membranes, the adherent transfected HEKcells were grown to confluence in two layer tissue culture factories (Fisher, catalogue number TKT-170-070E). Maximal levels of receptor expression were induced by addition of […] sodium butyrate for the last 18 hours of culture. The adherent cells were washed once with phosphate buffered saline (PBS, 50 ml per cell factory) and detached by the addition of 50 ml per cell factory of ice-cold membrane homogenisation buffer [20 mM HEPES (pH 7.4), 0.1 mM dithiothreitol, 1 mM EDTA, 0.1 mM phenyl methyl sulphonyl fluoride and 100 μg/ml bacitracin]. […] The final pellet was re-suspended in 4 ml of membrane homogenisation buffer per cell factory used and the protein content determined Membranes were stored at −80° C. in suitable aliquots.
All assays were performed in Corning clear bottomed, white 96-well NBS plates (Fisher). […] (The optimum coating concentrations were determined for each batch of membranes) The beads were pelleted by centrifugation (800×g for 7 minutes at 4° C.), washed once with assay buffer (50 mM HEPES pH 7.4 containing 5 mM magnesium chloride) and finally re-suspended in assay buffer at a bead concentration of 10 mg/ml.
Each assay contained 20 μl of 6.25 nM [^3H]PGD2, 20 μl membrane saturated SPA beads both in assay buffer and 10 μl of compound solution or 13,14-dihydro-15-keto prostaglandin D2 (DK-PGD2, for determination of non-specific binding, Cayman chemical company). […] The assay plate was incubated at room temperature for 2 hours and counted on a Wallac Microbeta liquid scintillation counter (1 minute per well).

IC50 [nM]	SMILES
10	CCS(=O)(=O)c1ccc(Oc2cc(Cl)ccc2OCC(=O)O)cc1 [Example 5, [4-Chloro-2-[4-(ethylsulfonyl)phenoxy]phenoxy]acetic acid, sodium salt]
1	CCS(=O)(=O)c1ccc(Oc2cc(F)ccc2OCC(=O)O)c(Cl)c1 [Example 43, {2-[2-Chloro-4-(ethylsulfonyl)phenoxy]-4-fluorophenoxy}acetic acid]
10	CCS(=O)(=O)c1ccc(Cc2cc(C(F)(F)F)ccc2OCC(=O)O)cc1 [Example 4, [2-[4-(Ethylsulfonyl)benzyl]-4-(trifluoromethyl)phenoxy]acetic acid]
